Reference: ChEMBL document CHEMBL3603809, “New Frontiers in Selective Human MAO-B Inhibitors” (J Med Chem, 2015)

Tests used:
Homo sapiens = species on record: Homo sapiens; experiment: Selectivity index, ratio of Ki for human MAOA to Ki for human MAOB
[1] = target: T1, Amine oxidase [flavin-containing] B (Homo sapiens, UniProt P27338); experiment: Inhibition of human MAOB
T1 sequence (P27338 whole entry): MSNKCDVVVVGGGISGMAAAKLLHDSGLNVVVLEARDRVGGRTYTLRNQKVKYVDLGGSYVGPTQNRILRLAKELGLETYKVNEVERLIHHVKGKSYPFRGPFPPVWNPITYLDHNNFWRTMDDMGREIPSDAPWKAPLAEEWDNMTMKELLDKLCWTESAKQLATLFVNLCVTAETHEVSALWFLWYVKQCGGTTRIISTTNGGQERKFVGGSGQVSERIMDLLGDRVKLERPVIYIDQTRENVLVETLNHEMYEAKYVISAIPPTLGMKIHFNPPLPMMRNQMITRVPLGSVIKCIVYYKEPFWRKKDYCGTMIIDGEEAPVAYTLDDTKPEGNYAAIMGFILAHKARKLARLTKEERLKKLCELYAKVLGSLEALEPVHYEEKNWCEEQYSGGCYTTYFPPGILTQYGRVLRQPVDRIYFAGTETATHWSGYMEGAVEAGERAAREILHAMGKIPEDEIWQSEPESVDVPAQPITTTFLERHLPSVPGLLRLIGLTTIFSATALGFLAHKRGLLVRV

[2] = target: T1, Amine oxidase [flavin-containing] B; experiment: Competitive inhibition of human liver MAOB expressed in Pichia pastoris
[3] = Inhibition of baboon MAOB; set-up: species or system Papio

| Structure (SMILES) | Ki [1] [nM] | further results |
| --- | --- | --- |
| C#CCN(C)c1nc2nc(CCC3CCN(Cc4ccccc4)CC3)ccc2c(-c2ccccc2)c1C#N | 32 | Ratio Ki (Homo sapiens): > 3 |
| C(=C\Cc1ccccc1)/Cc1ccccc1 | – | Ki [2]: 35 nM |
| C#CN(C)Cc1ccc(C(=O)NC2CC(C)(C)N([O])C(C)(C)C2)cc1 | 22000 | – |
| Cn1c(=O)c2c(nc(/C=C/C=C/c3cccc(Br)c3)n2C)n(C)c1=O | – | Ki [3]: 17 nM |
| Cn1c(=O)c2c(nc(OCc3ccc(Br)cc3)n2C)n(C)c1=O | 62 | – |
| CN(C)c1ccc(/N=C/c2ccccn2)cc1 | – | Ratio Ki (Homo sapiens): 3 |
| Cn1c(=O)c2c(nc(OCc3cccc(Br)c3)n2C)n(C)c1=O | 68 | – |
